≈ marks a conversion by molar mass, not a printed value.
Legend:
[1] = tested on: Human immunodeficiency virus 1; assay: Antiviral activity against HIV1 3B infected in human MT4 cells assessed as inhibition of virus-induced cytotoxicity after 5 days by MTT assay; format: functional, organism-based; conditions: Human immunodeficiency virus 1, 3B, MT4, 120 h
[2] = tested on: Human immunodeficiency virus 1; assay: Antiviral activity against HIV1 RES056 harboring reverse transcriptase K103N/Y181C double mutant infected in human MT4 cells assessed as inhibition of virus-induced cytotoxicity after 5 days by MTT assay; format: functional, organism-based; conditions: Human immunodeficiency virus 1, RES056, MT4, 120 h
[3] = Cytotoxicity against human MT4 cells assessed as reduction in cell viability after 5 days by MTT assay; format: cell-based
[4] = Selectivity index, ratio of CC50 for human MT4 cells to EC50 for HIV1 3B infected in human MT4 cells
[5] = Selectivity index, ratio of CC50 for human MT4 cells to EC50 for HIV1 RES056 harboring reverse transcriptase K103N/Y181C double mutant infected in human MT4 cells
[6] = tested on: Human immunodeficiency virus 1; assay: Antiviral activity against HIV1 harboring reverse transcriptase E138K mutant infected in human MT4 cells assessed as inhibition of virus-induced cytotoxicity after 5 days by MTT assay; format: functional, organism-based; conditions: Human immunodeficiency virus 1, MT4, 120 h
[7] = tested on: Human immunodeficiency virus 1; assay: Antiviral activity against HIV1 harboring reverse transcriptase L100I mutant infected in human MT4 cells assessed as inhibition of virus-induced cytotoxicity after 5 days by MTT assay; format: functional, organism-based; conditions: Human immunodeficiency virus 1, MT4, 120 h
[8] = tested on: Human immunodeficiency virus 1; assay: Antiviral activity against HIV1 harboring reverse transcriptase K103N mutant infected in human MT4 cells assessed as inhibition of virus-induced cytotoxicity after 5 days by MTT assay; format: functional, organism-based; conditions: Human immunodeficiency virus 1, MT4, 120 h
[9] = tested on: Human immunodeficiency virus 1; assay: Antiviral activity against HIV1 harboring reverse transcriptase Y181C mutant infected in human MT4 cells assessed as inhibition of virus-induced cytotoxicity after 5 days by MTT assay; format: functional, organism-based; conditions: Human immunodeficiency virus 1, MT4, 120 h
[10] = tested on: Human immunodeficiency virus 1; assay: Antiviral activity against HIV1 harboring reverse transcriptase Y188L mutant infected in human MT4 cells assessed as inhibition of virus-induced cytotoxicity after 5 days by MTT assay; format: functional, organism-based; conditions: Human immunodeficiency virus 1, MT4, 120 h
[11] = tested on: Human immunodeficiency virus 1; assay: Antiviral activity against HIV1 harboring reverse transcriptase F227L/V106A double mutant infected in human MT4 cells assessed as inhibition of virus-induced cytotoxicity after 5 days by MTT assay; format: functional, organism-based; conditions: Human immunodeficiency virus 1, MT4, 120 h
[12] = target: Human immunodeficiency virus type 1 reverse transcriptase (Human immunodeficiency virus 1, UniProt Q72547); assay: Inhibition of HIV1 reverse transcriptase p66/p51 using poly(rA)/oligo(dT)16 as template/primer measured after 40 mins by pico-green based spectrofluorometric analysis
[13] = Solubility of the compound in deionized water at pH 7
[14] = Solubility in water at pH 7; format: physicochemical
[15] = Acute toxicity in Kunming mouse assessed as mortality at 2000 mg/kg, ig measured every day for 1 week; format: organism-based; conditions: in vivo, po, 168 h
[16] = Acute toxicity in Kunming mouse assessed as lethargy at 2000 mg/kg, ig measured every day for 1 week; format: organism-based; conditions: in vivo, po, 168 h
[17] = Acute toxicity in Kunming mouse assessed as clonic convulsion at 2000 mg/kg, ig measured every day for 1 week; format: organism-based; conditions: in vivo, po, 168 h
[18] = Acute toxicity in Kunming mouse assessed as anorexia at 2000 mg/kg, ig measured every day for 1 week; format: organism-based; conditions: in vivo, po, 168 h
[19] = Acute toxicity in Kunming mouse assessed as ruffled fur at 2000 mg/kg, ig measured every day for 1 week; format: organism-based; conditions: in vivo, po, 168 h
[20] = Acute toxicity in Kunming mouse assessed as effect on body weight at 2000 mg/kg, ig measured every day for 1 week; format: organism-based; conditions: in vivo, po, 168 h
[21] = Subacute toxicity in Kunming mouse assessed as mortality at 50 mg/kg, po dosed once every other day for 14 days; format: organism-based; conditions: in vivo, 336 h
[22] = Subacute toxicity in Kunming mouse assessed as lethargy at 50 mg/kg, po dosed once every other day for 14 days; format: organism-based; conditions: in vivo, 336 h
[23] = Subacute toxicity in Kunming mouse assessed as clonic convulsion at 50 mg/kg, po dosed once every other day for 14 days; format: organism-based; conditions: in vivo, 336 h
[24] = Subacute toxicity in Kunming mouse assessed as anorexia at 50 mg/kg, po dosed once every other day for 14 days; format: organism-based; conditions: in vivo, 336 h
[25] = Subacute toxicity in Kunming mouse assessed as ruffled fur at 50 mg/kg, po dosed once every other day for 14 days; format: organism-based; conditions: in vivo, 336 h
[26] = Subacute toxicity in Kunming mouse assessed as effect on body weight at 50 mg/kg, po dosed once every other day for 14 days; format: organism-based; conditions: in vivo, 336 h
[27] = Subacute toxicity in Kunming mouse assessed as pathological damage to heart at 50 mg/kg, po dosed once every other day for 14 days by hematoxylin and eosin staining based assay; format: organism-based; conditions: in vivo, 336 h
[28] = Subacute toxicity in Kunming mouse assessed as pathological damage to liver at 50 mg/kg, po dosed once every other day for 14 days by hematoxylin and eosin staining based assay; format: organism-based; conditions: in vivo, 336 h
[29] = Subacute toxicity in Kunming mouse assessed as pathological damage to spleen at 50 mg/kg, po dosed once every other day for 14 days by hematoxylin and eosin staining based assay; format: organism-based; conditions: in vivo, 336 h
[30] = Subacute toxicity in Kunming mouse assessed as pathological damage to lungs at 50 mg/kg, po dosed once every other day for 14 days by hematoxylin and eosin staining based assay; format: organism-based; conditions: in vivo, 336 h
[31] = Subacute toxicity in Kunming mouse assessed as pathological damage to kidneys at 50 mg/kg, po dosed once every other day for 14 days by hematoxylin and eosin staining based assay; format: organism-based; conditions: in vivo, 336 h
[32] = Acute toxicity in Kunming mouse assessed as effect on animal growth at 2000 mg/kg, ig measured every day for 1 week; format: organism-based; conditions: in vivo, po, 168 h

Structure (SMILES)	EC50 ([1]; read-out: EC50) [nM]	EC50 ([1]; read-out: pEC50 (converted)) [nM]	EC50 [2] [µM]	CC50 at 120 h [3] [µM]	selectivity ratio ([4]; MT4 cells)	selectivity ratio ([5]; MT4 cells)	EC50 [6] [nM]	EC50 [7] [nM]	EC50 [8] [nM]	EC50 [9] [nM]	EC50 [10] [µM]	EC50 [11] [nM]	IC50 [12] [nM]	also measured
Cc1cc(C#N)cc(C)c1Oc1ccnc(Nc2ccc(CN3CCOCC3)cc2)n1	11	11	> 23	23	2040	< 1	140	410	68	910	4.93	1800	42	solubility [13]: 33.4 µg/mL (≈ 80.4 µM)
Cc1cn([C@H]2C[C@H](N=[N+]=[N-])[C@@H](CO)O2)c(=O)[nH]c1=O [ZIDOVUDINE]	–	–	0.015	> 7.48	–	–	14	3.6	11	5.6	0.0051	6.2	–	selectivity ratio [4]: > 704; selectivity ratio [5]: > 515
Nc1ccn([C@@H]2CS[C@H](CO)O2)c(=O)n1 [LAMIVUDINE]	6410	–	–	> 87.2	> 14	–	–	–	–	–	–	–	–	–
Cc1ccnc2c1NC(=O)c1cccnc1N2C1CC1 [NEVIRAPINE]	240	240	> 15	> 15	–	–	–	1640	10900	> 15000	> 15	> 15000	–	–
Cc1cc(C#N)cc(C)c1Oc1nc(Nc2ccc(C#N)cc2)nc(N)c1Br [ETRAVIRINE]	3.5	3.47	0.05	> 4.59	–	–	–	7.4	3.9	21	0.027	26	–	solubility [13]: < 1 µg/mL; solubility [14]: < 1 µg/mL
Cc1cc(C#N)cc(C)c1Oc1ccnc(Nc2ccc(CNC3CCN(C(=O)OC(C)(C)C)CC3)cc2)n1	190	191	> 3.51	3.51	19	< 1	–	–	–	–	–	–	277	–
Cc1cc(/C=C/C#N)cc(C)c1Oc1ccnc(Nc2ccc(CN3CCN(S(C)(=O)=O)CC3)cc2)n1	3.5	3.47	0.79	≥ 173	–	–	7.5	10	3.6	25	1.62	110	67	Activity [15]: Non-Toxic; Activity [16]: Non-Toxic; Activity [17]: Non-Toxic; Activity [18]: Non-Toxic; Activity [19]: Non-Toxic; Activity [20]: Non-Toxic; Activity [21]: Non-Toxic; Activity [22]: Non-Toxic; Activity [23]: Non-Toxic; Activity [24]: Non-Toxic; Activity [25]: Non-Toxic; Activity [26]: Non-Toxic; Activity [27]: Non-Toxic; Activity [28]: Non-Toxic; Activity [29]: Non-Toxic; Activity [30]: Non-Toxic; Activity [31]: Non-Toxic; Activity [32]: Non-Toxic
Cc1cc(C#N)cc(C)c1Oc1ccnc(Nc2ccc(CN3CCC(NC(=O)OC(C)(C)C)CC3)cc2)n1	200	200	> 4.34	4.34	21	< 1	–	–	–	–	–	–	413	–
O=C1Nc2ccc(Cl)cc2[C@@](C#CC2CC2)(C(F)(F)F)O1 [EFAVIRENZ]	–	–	0.24	> 6.34	–	–	6	52	89	–	0.24	270	–	–
Cc1cc(/C=C/C#N)cc(C)c1Oc1ccnc(Nc2ccc(CN3CCN(C(=O)OC(C)(C)C)CC3)cc2)n1	15	15.1	> 3.04	3.04	209	< 1	130	200	20	420	> 4.03	150	297	–
Cc1cc(C#N)cc(C)c1Oc1ccnc(Nc2ccc(CN3CCC(NS(C)(=O)=O)CC3)cc2)n1	55	55	> 18.1	18.1	331	< 1	380	700	460	2600	≥ 7.8	3230	79	–
Cc1cc(C#N)cc(C)c1Oc1ccnc(Nc2ccc(CN3CCN(S(C)(=O)=O)CC3)cc2)n1	7.2	7.24	> 3.43	3.43	475	< 1	89	110	230	470	> 5.22	1030	49	–
Cc1cc(/C=C/C#N)cc(C)c1Oc1ccnc(Nc2ccc(CN3CCC(NC(=O)OC(C)(C)C)CC3)cc2)n1	26	25.7	> 3.55	3.55	138	< 1	150	280	68	570	> 4.27	≥ 1140	499	–
Cc1cc(/C=C/C#N)cc(C)c1Oc1ccnc(Nc2ccc(CN3CCC(NS(C)(=O)=O)CC3)cc2)n1	6.9	6.92	> 6.99	6.99	1020	< 1	36	130	25	330	8.35	470	76	–
Cc1cc(C#N)cc(C)c1Oc1ccnc(Nc2ccc(CN3CCC(NS(N)(=O)=O)CC3)cc2)n1	92	91.2	> 3.72	3.72	40	< 1	450	2150	500	6540	> 6.97	≥ 6820	152	–
Cc1cc(C#N)cc(C)c1Oc1cc(Cl)nc(Nc2ccc(CN3CCOCC3)cc2)c1	930	–	> 6.9	–	7	< 1	–	–	–	–	–	–	–	–
Cc1cc(C)c(Oc2nc(N)nc(Nc3ccc(CN4CCOCC4)cc3)n2)c(C)c1	120	120	> 12.9	≥ 12.9	≥ 105	1	–	–	–	–	–	–	442	–
Cc1cc(/C=C/C#N)cc(C)c1Nc1ccnc(Nc2ccc(C#N)cc2)n1 [RILPIVIRINE]	1.3	1.29	–	4.38	–	–	–	–	–	–	–	–	–	–
